Results reported in PubChem BioAssay (NCI).
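Assay format: 96-well plates, 48-hour exposure. TGI: total growth inhibition.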

Experiments:
Assay in all cases: NCI tumour cell line growth inhibition, 48 h
[1] = system: NCI/ADR-RES ovarian
[2] = system: HT29 colon
[3] = system: HOP-62 NSCLC
[4] = system: HCT-15 colon
[5] = system: HCT-116 colon
[6] = system: HCC-2998 colon
[7] = system: CCRF-CEM leukemia
[8] = system: MDA-N
[9] = system: A498 renal
[10] = system: SF-539 CNS
[11] = system: LOX IMVI melanoma
[12] = system: NCI-H23 lung
[13] = system: COLO 205 colon
[14] = system: T-47D breast
[15] = system: DU-145 prostate
[16] = system: SF-268 CNS
[17] = system: OVCAR-8 ovarian
[18] = system: EKVX NSCLC
[19] = system: SF-295 CNS
[20] = system: SNB-75 CNS
[21] = system: 786-0 renal
[22] = system: HS 578T breast
[23] = system: SNB-19 CNS
[24] = system: MDA-MB-231 breast
[25] = system: SK-MEL-28 melanoma
[26] = system: BT-549 breast
[27] = system: UACC-62 melanoma
[28] = system: OVCAR-5 ovarian
[29] = system: MDA-MB-435
[30] = system: SK-MEL-2 melanoma
[31] = system: UACC-257 melanoma
[32] = system: RXF 393 renal
[33] = system: CAKI-1 renal
[34] = system: MCF7 breast
[35] = system: OVCAR-4 ovarian
[36] = system: U251 CNS
[37] = system: NCI-H460 lung
[38] = system: SK-OV-3 ovarian
[39] = system: NCI-H522 lung
[40] = system: OVCAR-3 ovarian
[41] = system: M14 melanoma
[42] = system: A549 NSCLC
[43] = system: NCI-H226 lung
[44] = system: MOLT-4 leukemia
[45] = system: KM12 colon
[46] = system: MALME-3M melanoma
[47] = system: SW-620 colon
[48] = system: K-562 leukemia
[49] = system: SN12C renal
[50] = system: TK-10 renal
[51] = system: HL-60(TB) leukemia
[52] = system: RPMI-8226 leukemia
[53] = system: HOP-92 NSCLC
[54] = system: IGROV1 ovarian
[55] = system: ACHN renal
[56] = system: PC-3 prostate
[57] = system: SR leukemia
[58] = system: SK-MEL-5 melanoma
[59] = system: UO-31 renal

Which results are given for `O=C(N/N=C(/COc1cccc(Cl)c1)N=Cc1cccnc1)c1ccncc1`?
TGI [1]: > 100 µM; TGI [2]: > 100 µM; TGI [3]: > 100 µM; TGI [4]: > 100 µM; TGI [5]: > 100 µM; TGI [6]: > 100 µM; TGI [7]: > 100 µM; TGI [8]: > 100 µM; TGI [9]: > 100 µM; TGI [10]: > 100 µM; TGI [11]: > 100 µM; TGI [12]: > 100 µM; TGI [13]: > 100 µM; TGI [14]: > 100 µM; TGI [15]: > 100 µM; TGI [16]: > 100 µM; TGI [17]: > 100 µM; TGI [18]: > 100 µM; TGI [19]: > 100 µM; TGI [20]: > 100 µM; TGI [21]: > 100 µM; TGI [22]: > 100 µM; TGI [23]: > 100 µM; TGI [24]: > 100 µM; TGI [25]: > 100 µM; TGI [26]: > 100 µM; TGI [27]: > 100 µM; TGI [28]: > 100 µM; TGI [29]: > 100 µM; TGI [30]: > 100 µM; TGI [31]: > 100 µM; TGI [32]: > 100 µM; TGI [33]: > 100 µM; TGI [34]: > 100 µM; TGI [35]: > 100 µM; TGI [36]: > 100 µM; TGI [37]: > 100 µM; TGI [38]: > 100 µM; TGI [39]: > 100 µM; TGI [40]: > 100 µM; TGI [41]: > 100 µM; TGI [42]: > 100 µM; TGI [43]: > 100 µM; TGI [44]: > 100 µM; TGI [45]: > 100 µM; TGI [46]: > 100 µM; TGI [47]: > 100 µM; TGI [48]: > 100 µM; TGI [49]: > 100 µM; TGI [50]: > 100 µM; TGI [51]: > 100 µM; TGI [52]: > 100 µM; TGI [53]: 89.7 µM; TGI [54]: > 100 µM; TGI [55]: > 100 µM; TGI [56]: > 100 µM

Which TGI [1] does the source give for `CCN(CC)CCNc1ccc(C)c2sc3ccccc3c(=O)c12` here?
The TGI was 16.9 µM.

And the TGI [2]?
Its TGI is 3.52 µM.

And the TGI [3]?
The TGI was 24.2 µM.

And the TGI [4]?
The TGI was 8.87 µM.

And the TGI [5]?
Its TGI is 4.31 µM.

What about the TGI [6] of the same compound?
The TGI was 14 µM.

And the TGI [7]?
Its TGI is 8.04 µM.

And the TGI [8]?
The TGI was 4.04 µM.

And the TGI [9]?
The TGI was 8.05 µM.

And the TGI [10]?
The TGI was 8.04 µM.

What about the TGI [11] of the same compound?
The TGI was 3.26 µM.

And the TGI [12]?
The TGI was 10.3 µM.

What about the TGI [13] of the same compound?
The TGI was 4.23 µM.

What about the TGI [14] of the same compound?
The TGI was 19.4 µM.

And the TGI [15]?
The TGI was 18.3 µM.

What about the TGI [16] of the same compound?
Its TGI is 20.4 µM.

And the TGI [17]?
The TGI was 13.3 µM.

And the TGI [18]?
The TGI was 19.3 µM.

And the TGI [57]?
Its TGI is 6.58 µM.

What about the TGI [19] of the same compound?
The TGI was 5.66 µM.

And the TGI [20]?
Its TGI is 7.68 µM.

And the TGI [58]?
Its TGI is 5.4 µM.

What about the TGI [59] of the same compound?
The TGI was 3 µM.

And the TGI [21]?
Its TGI is 9.32 µM.

And the TGI [22]?
Its TGI is 6.63 µM.

And the TGI [23]?
The TGI was 8.85 µM.

What about the TGI [24] of the same compound?
Its TGI is 7.96 µM.

What about the TGI [25] of the same compound?
Its TGI is 3.51 µM.

What about the TGI [26] of the same compound?
Its TGI is 19.4 µM.

What about the TGI [27] of the same compound?
Its TGI is 3.68 µM.

What about the TGI [28] of the same compound?
The TGI was 9.59 µM.

What about the TGI [29] of the same compound?
The TGI was 4.49 µM.

What about the TGI [30] of the same compound?
The TGI was 10.3 µM.

What about the TGI [31] of the same compound?
Its TGI is 3.18 µM.

What about the TGI [32] of the same compound?
The TGI was 4.73 µM.

What about the TGI [33] of the same compound?
Its TGI is 8.02 µM.

What about the TGI [34] of the same compound?
The TGI was 5.8 µM.

What about the TGI [35] of the same compound?
The TGI was 18.1 µM.

What about the TGI [36] of the same compound?
Its TGI is 5.65 µM.

What about the TGI [37] of the same compound?
Its TGI is 5.93 µM.

And the TGI [38]?
The TGI was 18.1 µM.

What about the TGI [39] of the same compound?
Its TGI is 5.5 µM.

What about the TGI [40] of the same compound?
The TGI was 16.8 µM.

What about the TGI [41] of the same compound?
Its TGI is 3.36 µM.

And the TGI [42]?
Its TGI is 7.13 µM.

What about the TGI [43] of the same compound?
The TGI was 11.8 µM.

And the TGI [44]?
Its TGI is 4.65 µM.

What about the TGI [45] of the same compound?
The TGI was 10.4 µM.

And the TGI [46]?
Its TGI is 9.46 µM.

And the TGI [47]?
Its TGI is 4.35 µM.

What about the TGI [48] of the same compound?
The TGI was 6.08 µM.

And the TGI [49]?
Its TGI is 12.2 µM.

And the TGI [50]?
The TGI was 11 µM.

What about the TGI [51] of the same compound?
The TGI was 3.85 µM.

What about the TGI [52] of the same compound?
The TGI was 4.37 µM.

And the TGI [54]?
Its TGI is 13.5 µM.

And the TGI [55]?
Its TGI is 11.5 µM.

What about the TGI [56] of the same compound?
The TGI was 11.2 µM.
